The results in this text go back to publication PMC11807261 (ACS infectious diseases, 2022).

In one data set the target is T1, Mtb GlnA1 (Mycobacterium tuberculosis, UniProt P9WN39).
T1 construct: His6 (N); made in house; host or cells: E. coli BL21(DE3)
Nature of the data set: biochemical.

Data set [1] has as its target recombinant human glutamine synthetase (GS) (Homo sapiens, UniProt P15104). Nature of the data set: biochemical. It is filed as biochemical. The settings on record: for inhibition of recombinant human GS: LIN at 100 µM (Figure S7).
The next data set concerns Mtb H37Rv. The format is cell-based, Mycobacterium tuberculosis.
A short description of another data set: Cytotoxicity (CC50). The format is cell-based. The following applies: African green monkey, Vero E6 cells.
The test system of the next data set is THP-1 macrophages. The format is cell-based.
Data set [2] concerns Mtb H37Rv within THP-1 macrophages. It is filed as cell-based, Mycobacterium tuberculosis.
The mark [3] stands for this setting: compounds directly from MMV Pathogen Box library plates, read-out: IC50 (μM), library.
Setting [4] is: compounds resupplied from MMV, mean ± SE (n=3), read-out: IC50 (μM), resupply.

“Also recorded” adds a separate entry of the source. Read-outs that look alike come from different tables or passages of the source.

T1 sequence (P9WN39 whole entry): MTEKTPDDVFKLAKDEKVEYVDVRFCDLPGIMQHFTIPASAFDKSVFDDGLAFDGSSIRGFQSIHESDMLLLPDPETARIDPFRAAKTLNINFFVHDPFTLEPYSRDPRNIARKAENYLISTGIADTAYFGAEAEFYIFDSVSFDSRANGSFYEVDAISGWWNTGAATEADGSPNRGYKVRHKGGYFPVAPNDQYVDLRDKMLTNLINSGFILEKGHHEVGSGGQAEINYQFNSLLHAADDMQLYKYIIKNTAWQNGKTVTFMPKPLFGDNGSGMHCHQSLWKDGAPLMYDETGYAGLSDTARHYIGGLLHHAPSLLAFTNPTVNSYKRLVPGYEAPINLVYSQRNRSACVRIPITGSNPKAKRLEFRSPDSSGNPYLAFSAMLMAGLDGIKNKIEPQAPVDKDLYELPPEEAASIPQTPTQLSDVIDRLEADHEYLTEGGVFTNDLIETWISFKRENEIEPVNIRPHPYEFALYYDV
Sequence of recombinant human glutamine synthetase (GS) (P15104 whole entry): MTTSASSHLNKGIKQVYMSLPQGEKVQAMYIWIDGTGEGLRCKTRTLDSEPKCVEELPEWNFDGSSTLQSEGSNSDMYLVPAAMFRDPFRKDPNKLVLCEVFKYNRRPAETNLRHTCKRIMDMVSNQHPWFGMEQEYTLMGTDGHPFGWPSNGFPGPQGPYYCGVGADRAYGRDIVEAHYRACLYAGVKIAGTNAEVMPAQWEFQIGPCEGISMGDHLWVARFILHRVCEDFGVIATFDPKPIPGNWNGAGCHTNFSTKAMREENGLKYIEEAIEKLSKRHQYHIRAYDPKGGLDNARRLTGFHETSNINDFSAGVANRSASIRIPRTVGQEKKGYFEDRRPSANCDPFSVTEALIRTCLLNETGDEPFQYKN

On to `Cc1nc(-c2ccccn2)nc(N2CCC(Cc3ccccc3)C2)c1Cl` (stereo not shown) [MMV659004], for which the concentration for half-maximal inhibition (IC50) at Mtb GlnA1 (setting [3]) was determined as 1.14 µM; on Mtb GlnA1 (setting [4]), 0.66 ± 0.04 µM.

In the case of `CC(C)(CN)c1nc(-c2ccc(Cl)c(O)c2)c(-c2ccnc(N)n2)[nH]1` [MMV030734], the values for the IC50 at Mtb GlnA1 (setting [3]) and on Mtb GlnA1 (setting [4]) were 1.38 µM and 1.84 ± 0.09 µM, respectively.

With `Cc1ccc(NC(=O)c2nc[nH]c2C(=O)Nc2nc3ccccc3[nH]2)c(C)c1` [MMV011903], the values for the 50% inhibitory concentration (IC50) on Mtb GlnA1 (setting [3]) and on Mtb GlnA1 (setting [4]) were 0.78 µM and 1.63 ± 0.2 µM, respectively.

`CP(=O)(O)CCC(N)C(=O)O` (racemic) [PPT, DL-phosphinothricin] came in with an IC50 on Mtb GlnA1 of 4.45 ± 0.19 µM.

As to `COc1ccc2cc(-c3nc(C(C)(C)C)[nH]c3-c3ccnc(N)c3)ccc2c1` [11a], the 50% inhibitory concentration (IC50) against Mtb GlnA1 is 0.53 ± 0.027 µM; in data set [1] (malachite green assay, read-out: IC50 against human GS), ~10400 nM. In addition, the “inhibition of recombinant human GS” value in data set [1] is “did inhibit it considerably”.

As to `C[C@]1(O)C[C@@H](c2nc(-c3ccc4ccc(-c5ccccc5)nc4c3)c3c(N)nccn32)C1` [LIN, linsitinib], in the data set with Mtb H37Rv, the “growth inhibition concentration (GIC)” value is ~ 21 μM. For the same molecule, the half-maximal cytotoxic concentration (CC50) in the data set “Cytotoxicity (CC50)” is 67500 nM. Further, in data set [1], the “inhibition of recombinant human GS” value is “did not inhibit; also recorded: does not inhibit”. In addition, in the data set with THP-1 macrophages, the “level of mTOR phosphorylation” value is listed as “reduce the level of mTOR phosphorylation” and the “level of p62 (autophagy flux)” value is reported as “seemingly reduced”. Also, in the data set with THP-1 macrophages (10 μM LIN, Western blotting), the “apoptosis induction (cleaved caspase 3)” value is listed as “no apoptosis induction” and the “autophagy induction (LC3B-II converted from LC3B-I)” value is on record as “induced autophagy”. The “autophagosome and autolysosome forming puncta” value in the data set on THP-1 macrophages (mRFP-GFP-LC3 reporter THP-1, 10 μM LIN 24 h, Mtb-infected and uninfected) is “elevated”. Also, in data set [2], the “intracellular Mtb killing in combination with bedaquiline (CFU)” value is “eliminated more intracellular Mtb and improved the killing effect of BDQ”; the “survival of intracellular Mtb (CFU)” value was “significantly decreased the survival”.

With `c1ccc(-c2nc(NC3CCCCC3)cc(C3CC3)n2)nc1` [MMV021013], the half-maximal inhibitory concentration (IC50) on Mtb GlnA1 (setting [3]) was found to be 0.69 µM; on Mtb GlnA1 (setting [4]), 0.69 ± 0.08 µM.

For orientation: IC50 means the midpoint of a concentration-inhibition curve. As usually defined, the CC50 is the concentration that lowers cell viability or growth by half. A low value points to harm at low concentration.
